Laboratory results taken from patent publication US10494332B2, “Protein tyrosine phosphatases or SHP2 inhibitors and uses thereof” (Indiana University Research and Technology Corporation, priority 2015, dated 2019).
Values joined by “and” are separate entries in the source; they are usually repeats but may differ in a detail not shown here. Equal entries are not always repeated. Where two headings read alike, the source gives them in different places.

Experiments:
Test in all cases: PTP inhibition assay (pNPP)
Assay type in all cases: biochemical
TbPTP1 = TbPTP1 (Trypanosoma brucei brucei, UniProt Q38AT7); conditions: pH 7.0, 25° C.
TbPTP1, sequence (Q38AT7 entry or part of it): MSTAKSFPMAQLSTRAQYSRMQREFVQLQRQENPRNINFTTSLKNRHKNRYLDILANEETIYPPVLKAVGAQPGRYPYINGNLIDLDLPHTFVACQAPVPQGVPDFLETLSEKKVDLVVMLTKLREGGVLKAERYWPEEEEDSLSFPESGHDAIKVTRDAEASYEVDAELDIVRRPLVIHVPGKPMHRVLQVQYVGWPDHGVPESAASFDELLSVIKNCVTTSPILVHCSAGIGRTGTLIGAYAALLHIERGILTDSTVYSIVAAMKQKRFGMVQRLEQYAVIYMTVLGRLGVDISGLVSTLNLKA

LYP = molecular target: T1, LYP (Homo sapiens, UniProt Q9Y2R2); conditions: pNPP at Km, pH 7.0, 25° C.
T1 sequence (Q9Y2R2 1-807): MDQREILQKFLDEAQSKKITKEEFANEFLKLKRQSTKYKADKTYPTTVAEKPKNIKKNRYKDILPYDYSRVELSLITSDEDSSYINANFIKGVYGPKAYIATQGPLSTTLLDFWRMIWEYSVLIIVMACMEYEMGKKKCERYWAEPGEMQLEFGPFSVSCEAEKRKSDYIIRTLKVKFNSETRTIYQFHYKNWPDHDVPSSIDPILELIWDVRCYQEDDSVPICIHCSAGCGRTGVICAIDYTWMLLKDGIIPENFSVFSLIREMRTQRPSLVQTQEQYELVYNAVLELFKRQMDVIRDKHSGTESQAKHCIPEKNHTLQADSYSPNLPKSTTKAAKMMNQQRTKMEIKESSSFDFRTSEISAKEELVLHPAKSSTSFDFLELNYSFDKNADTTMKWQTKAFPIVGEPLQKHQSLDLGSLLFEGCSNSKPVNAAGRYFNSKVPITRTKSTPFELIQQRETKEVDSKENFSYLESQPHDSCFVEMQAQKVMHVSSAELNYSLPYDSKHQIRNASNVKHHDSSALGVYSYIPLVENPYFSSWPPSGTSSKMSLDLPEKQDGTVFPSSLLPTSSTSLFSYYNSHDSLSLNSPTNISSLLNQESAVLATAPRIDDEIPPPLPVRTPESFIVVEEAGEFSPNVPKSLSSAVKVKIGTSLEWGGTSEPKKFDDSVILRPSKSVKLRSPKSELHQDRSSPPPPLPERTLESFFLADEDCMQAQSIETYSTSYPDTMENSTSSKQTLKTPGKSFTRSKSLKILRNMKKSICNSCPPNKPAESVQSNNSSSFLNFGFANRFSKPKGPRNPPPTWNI

SHP1 = SHP1 (Homo sapiens, UniProt P29350); conditions: pNPP at Km, pH 7.0, 25° C.
SHP1, sequence (P29350 whole entry): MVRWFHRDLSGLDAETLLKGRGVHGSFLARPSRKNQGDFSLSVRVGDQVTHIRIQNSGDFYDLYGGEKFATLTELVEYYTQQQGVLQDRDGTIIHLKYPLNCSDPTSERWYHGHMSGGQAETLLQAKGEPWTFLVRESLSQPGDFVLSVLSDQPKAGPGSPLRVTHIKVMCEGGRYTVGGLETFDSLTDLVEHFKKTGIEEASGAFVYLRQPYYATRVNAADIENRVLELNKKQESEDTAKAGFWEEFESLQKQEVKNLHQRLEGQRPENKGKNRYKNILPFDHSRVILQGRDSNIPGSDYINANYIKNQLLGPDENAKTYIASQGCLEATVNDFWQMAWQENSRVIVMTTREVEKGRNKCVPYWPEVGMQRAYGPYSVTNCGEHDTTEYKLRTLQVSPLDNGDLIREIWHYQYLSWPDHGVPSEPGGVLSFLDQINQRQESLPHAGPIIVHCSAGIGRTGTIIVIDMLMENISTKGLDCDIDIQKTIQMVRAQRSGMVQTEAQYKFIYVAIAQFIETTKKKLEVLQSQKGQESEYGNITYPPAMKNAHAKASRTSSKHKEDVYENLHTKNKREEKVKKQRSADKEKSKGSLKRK

Meg2 = molecular target: T2, Meg2 (Homo sapiens, UniProt P43378)
T2 sequence (P43378 1-593): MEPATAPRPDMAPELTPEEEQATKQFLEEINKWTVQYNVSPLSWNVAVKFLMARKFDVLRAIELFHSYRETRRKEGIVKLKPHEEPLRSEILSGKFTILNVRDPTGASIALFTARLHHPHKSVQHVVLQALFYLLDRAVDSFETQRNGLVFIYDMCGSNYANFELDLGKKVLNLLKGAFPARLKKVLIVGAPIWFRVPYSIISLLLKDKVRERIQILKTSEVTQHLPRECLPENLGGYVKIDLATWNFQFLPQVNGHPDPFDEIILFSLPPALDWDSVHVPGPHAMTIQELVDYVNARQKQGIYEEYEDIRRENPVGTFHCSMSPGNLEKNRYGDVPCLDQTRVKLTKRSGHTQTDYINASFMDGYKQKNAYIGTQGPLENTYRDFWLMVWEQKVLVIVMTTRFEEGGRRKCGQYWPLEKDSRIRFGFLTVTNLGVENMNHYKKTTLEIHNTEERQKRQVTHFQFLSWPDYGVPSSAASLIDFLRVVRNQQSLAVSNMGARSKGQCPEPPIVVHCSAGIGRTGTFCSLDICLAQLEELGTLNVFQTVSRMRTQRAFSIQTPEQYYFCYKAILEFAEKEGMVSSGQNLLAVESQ

CD45 = molecular target: T3, CD45 (Homo sapiens, UniProt P08575); conditions: pNPP at Km, pH 7.0, 25° C.
T3 sequence (P08575 26-1306): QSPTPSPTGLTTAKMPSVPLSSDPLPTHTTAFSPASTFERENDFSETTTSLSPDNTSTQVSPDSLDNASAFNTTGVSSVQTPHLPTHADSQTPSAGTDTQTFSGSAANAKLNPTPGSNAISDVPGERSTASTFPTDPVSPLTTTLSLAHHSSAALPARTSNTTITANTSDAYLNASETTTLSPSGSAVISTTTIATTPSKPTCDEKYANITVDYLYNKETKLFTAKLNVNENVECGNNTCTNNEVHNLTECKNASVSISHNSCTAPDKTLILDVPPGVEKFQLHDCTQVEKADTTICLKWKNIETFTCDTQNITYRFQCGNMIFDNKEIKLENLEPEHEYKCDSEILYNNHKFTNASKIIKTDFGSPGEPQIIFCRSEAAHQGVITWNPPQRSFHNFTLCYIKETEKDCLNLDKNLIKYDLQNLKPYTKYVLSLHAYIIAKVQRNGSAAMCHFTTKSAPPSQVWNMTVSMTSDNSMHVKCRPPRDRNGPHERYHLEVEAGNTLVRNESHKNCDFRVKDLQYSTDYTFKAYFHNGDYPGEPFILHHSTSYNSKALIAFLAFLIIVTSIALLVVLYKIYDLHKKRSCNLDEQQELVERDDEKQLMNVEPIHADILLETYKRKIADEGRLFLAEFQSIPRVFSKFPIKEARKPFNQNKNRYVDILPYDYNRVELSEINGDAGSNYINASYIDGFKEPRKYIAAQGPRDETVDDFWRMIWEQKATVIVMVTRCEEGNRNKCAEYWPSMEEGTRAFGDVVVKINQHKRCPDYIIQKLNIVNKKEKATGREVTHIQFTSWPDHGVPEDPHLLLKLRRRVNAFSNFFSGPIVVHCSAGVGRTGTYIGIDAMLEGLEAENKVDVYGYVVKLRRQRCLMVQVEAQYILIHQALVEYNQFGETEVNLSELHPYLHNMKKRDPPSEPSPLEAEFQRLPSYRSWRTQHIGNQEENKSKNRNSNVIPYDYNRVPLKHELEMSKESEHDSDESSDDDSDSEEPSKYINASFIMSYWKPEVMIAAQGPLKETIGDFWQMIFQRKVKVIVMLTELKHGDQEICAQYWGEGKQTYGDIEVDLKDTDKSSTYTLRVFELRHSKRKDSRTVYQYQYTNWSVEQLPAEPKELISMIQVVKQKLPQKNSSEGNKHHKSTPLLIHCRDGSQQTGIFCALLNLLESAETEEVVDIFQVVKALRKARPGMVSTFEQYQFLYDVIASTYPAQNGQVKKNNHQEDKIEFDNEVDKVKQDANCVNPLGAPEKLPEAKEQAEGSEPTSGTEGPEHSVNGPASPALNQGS

LAR = LAR (Homo sapiens, UniProt P10586)
LAR, sequence (P10586 30-1907): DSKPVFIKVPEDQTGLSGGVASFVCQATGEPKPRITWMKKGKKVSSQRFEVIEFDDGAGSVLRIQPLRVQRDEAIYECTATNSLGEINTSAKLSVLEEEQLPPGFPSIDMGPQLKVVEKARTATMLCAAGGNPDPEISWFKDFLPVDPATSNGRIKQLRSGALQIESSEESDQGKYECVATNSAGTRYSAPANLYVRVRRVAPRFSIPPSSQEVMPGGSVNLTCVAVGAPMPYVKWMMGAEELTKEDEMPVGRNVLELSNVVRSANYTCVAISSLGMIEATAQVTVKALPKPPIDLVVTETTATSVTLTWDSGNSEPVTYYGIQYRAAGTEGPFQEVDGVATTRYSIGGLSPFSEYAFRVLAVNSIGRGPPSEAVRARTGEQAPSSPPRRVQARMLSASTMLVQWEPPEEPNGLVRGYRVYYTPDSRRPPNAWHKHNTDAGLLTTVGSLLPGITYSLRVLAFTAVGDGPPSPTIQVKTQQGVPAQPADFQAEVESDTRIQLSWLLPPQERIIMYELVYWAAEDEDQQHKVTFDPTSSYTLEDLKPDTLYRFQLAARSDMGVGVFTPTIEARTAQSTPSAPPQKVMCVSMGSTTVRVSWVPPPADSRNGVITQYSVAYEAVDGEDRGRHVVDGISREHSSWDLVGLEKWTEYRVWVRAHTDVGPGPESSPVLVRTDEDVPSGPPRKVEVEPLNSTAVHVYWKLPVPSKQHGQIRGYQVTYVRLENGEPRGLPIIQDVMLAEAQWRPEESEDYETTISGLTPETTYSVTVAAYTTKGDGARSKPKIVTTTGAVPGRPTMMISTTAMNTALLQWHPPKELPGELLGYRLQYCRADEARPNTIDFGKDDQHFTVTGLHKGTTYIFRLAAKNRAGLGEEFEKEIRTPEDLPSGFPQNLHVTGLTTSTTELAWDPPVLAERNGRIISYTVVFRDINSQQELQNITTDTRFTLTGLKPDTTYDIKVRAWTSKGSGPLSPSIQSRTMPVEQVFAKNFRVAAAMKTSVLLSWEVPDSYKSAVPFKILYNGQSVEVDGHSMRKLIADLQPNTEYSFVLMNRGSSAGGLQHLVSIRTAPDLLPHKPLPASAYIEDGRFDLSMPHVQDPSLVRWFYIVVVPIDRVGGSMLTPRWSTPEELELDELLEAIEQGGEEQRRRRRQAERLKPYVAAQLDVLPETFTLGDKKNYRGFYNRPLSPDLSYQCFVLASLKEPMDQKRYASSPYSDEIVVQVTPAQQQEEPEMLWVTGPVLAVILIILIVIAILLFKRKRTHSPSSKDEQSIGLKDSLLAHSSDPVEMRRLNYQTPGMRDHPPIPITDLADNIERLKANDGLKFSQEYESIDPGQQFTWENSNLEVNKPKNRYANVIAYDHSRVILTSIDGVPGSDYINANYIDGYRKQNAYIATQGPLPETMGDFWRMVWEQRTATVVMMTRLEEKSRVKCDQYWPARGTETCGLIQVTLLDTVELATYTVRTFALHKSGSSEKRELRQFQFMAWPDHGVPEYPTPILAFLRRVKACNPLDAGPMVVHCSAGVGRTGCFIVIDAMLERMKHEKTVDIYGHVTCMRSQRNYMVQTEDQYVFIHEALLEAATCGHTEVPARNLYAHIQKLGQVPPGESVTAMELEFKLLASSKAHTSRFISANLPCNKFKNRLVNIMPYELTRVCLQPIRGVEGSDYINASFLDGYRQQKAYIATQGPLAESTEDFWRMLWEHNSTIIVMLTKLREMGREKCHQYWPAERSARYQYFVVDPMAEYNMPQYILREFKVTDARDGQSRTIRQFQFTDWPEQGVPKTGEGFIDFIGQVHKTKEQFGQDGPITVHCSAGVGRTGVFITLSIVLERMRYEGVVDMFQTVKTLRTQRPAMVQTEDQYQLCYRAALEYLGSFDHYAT

PTPγ = PTPγ (Homo sapiens, UniProt P23470)
PTPγ, sequence (P23470 20-1445): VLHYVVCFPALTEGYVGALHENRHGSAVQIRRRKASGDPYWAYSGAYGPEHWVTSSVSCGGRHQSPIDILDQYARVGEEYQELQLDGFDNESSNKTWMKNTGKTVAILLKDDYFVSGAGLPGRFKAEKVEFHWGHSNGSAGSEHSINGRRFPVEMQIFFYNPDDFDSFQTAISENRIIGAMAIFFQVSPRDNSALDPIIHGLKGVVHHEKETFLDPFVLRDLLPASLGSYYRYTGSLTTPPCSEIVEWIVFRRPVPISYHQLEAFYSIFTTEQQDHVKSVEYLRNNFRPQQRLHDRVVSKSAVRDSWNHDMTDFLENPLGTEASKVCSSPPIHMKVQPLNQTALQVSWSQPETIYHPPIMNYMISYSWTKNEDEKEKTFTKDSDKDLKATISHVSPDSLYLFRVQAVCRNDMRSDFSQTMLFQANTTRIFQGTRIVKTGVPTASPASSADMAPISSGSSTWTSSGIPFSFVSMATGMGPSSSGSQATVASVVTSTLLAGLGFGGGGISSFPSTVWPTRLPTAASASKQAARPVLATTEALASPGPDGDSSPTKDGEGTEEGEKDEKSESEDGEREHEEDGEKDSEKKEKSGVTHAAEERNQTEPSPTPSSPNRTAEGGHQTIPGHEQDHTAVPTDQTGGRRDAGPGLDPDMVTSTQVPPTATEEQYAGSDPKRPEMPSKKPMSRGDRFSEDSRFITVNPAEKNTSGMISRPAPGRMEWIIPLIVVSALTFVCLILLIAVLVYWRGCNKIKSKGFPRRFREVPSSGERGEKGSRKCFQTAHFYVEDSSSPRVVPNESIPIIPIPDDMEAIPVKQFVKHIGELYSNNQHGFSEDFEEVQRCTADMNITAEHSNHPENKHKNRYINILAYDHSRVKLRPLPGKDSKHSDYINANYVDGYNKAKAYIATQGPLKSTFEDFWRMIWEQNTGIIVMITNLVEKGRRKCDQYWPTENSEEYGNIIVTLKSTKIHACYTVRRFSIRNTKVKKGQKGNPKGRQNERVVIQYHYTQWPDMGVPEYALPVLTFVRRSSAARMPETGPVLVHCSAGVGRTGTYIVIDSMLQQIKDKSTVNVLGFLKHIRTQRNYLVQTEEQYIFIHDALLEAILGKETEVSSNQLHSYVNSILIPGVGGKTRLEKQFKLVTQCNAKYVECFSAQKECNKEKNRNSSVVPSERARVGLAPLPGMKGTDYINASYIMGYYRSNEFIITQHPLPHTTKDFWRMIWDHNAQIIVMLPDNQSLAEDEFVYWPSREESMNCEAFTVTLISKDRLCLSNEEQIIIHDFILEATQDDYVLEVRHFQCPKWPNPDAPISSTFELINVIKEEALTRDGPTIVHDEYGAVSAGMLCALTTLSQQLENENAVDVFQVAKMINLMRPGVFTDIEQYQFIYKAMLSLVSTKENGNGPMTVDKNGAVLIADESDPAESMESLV

PTPε = PTPε (Homo sapiens, UniProt P23469)
PTPε, sequence (P23469 20-700): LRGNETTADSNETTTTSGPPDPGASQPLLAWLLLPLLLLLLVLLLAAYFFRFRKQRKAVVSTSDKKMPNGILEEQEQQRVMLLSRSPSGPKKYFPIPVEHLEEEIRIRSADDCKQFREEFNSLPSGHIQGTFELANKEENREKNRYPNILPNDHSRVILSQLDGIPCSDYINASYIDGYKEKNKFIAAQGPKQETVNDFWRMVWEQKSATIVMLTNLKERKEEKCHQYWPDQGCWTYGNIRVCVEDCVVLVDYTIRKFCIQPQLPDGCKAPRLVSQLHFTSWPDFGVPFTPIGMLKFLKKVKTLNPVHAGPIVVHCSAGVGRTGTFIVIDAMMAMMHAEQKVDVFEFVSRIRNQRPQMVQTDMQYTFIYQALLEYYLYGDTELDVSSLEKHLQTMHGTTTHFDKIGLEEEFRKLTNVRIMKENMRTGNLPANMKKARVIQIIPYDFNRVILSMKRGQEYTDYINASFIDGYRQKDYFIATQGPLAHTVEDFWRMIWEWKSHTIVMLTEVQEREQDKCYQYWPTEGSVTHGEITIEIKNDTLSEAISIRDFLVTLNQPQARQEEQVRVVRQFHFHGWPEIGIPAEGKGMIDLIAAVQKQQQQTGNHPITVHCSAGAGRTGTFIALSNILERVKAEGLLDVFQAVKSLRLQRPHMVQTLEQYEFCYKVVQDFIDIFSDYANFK

[1] = pNPP at Km, read-out: IC50 TbPTP1

Structure (SMILES) | IC50 (TbPTP1; [1]) | IC50 (LYP) | IC50 (SHP1) | IC50 (Meg2) [µM] | IC50 (CD45) | IC50 (LAR) [µM] | IC50 (PTPγ) [µM] | IC50 (PTPε) [µM] | IC50 (TbPTP1; IC50 TbPTP1, pNPP at Km) [µM]
O=C(CS(=O)(=O)O)Nc1ccc2nc(C(F)(F)F)[nH]c2c1 | > 100 µM | > 100 µM | > 100 µM | > 100 | > 100 µM | > 100 | > 100 | > 100 | –
O=C(C(c1ccccc1)S(=O)(=O)O)N1CCC(c2ccc(Cl)c(Cl)c2)CC1 (stereo not drawn) [Compound L319N47] | 38 µM | 42 µM | 66 µM | 147 | 140 µM | > 200 | 180 | > 200 | –
O=C(C(c1ccccc1)S(=O)(=O)O)N1CCC(Cc2ccccc2)CC1 (stereo not drawn) [Compound L319N46] | > 200 µM | > 200 µM | > 200 µM | > 200 | > 200 µM | > 200 | > 200 | > 200 | –
O=C(CS(=O)(=O)O)Nc1cnc2ccccc2c1 | > 100 µM | > 100 µM | > 100 µM | > 100 | > 100 µM | > 100 | > 100 | > 100 | –
O=C(Nc1ccc(N2CCOCC2)cc1)C(c1ccccc1)S(=O)(=O)O (stereo not drawn) [Compound L319M68] | > 200 µM | > 200 µM | > 200 µM | > 200 | > 200 µM | > 200 | > 200 | > 200 | –
O=C(C(c1ccccc1)S(=O)(=O)O)N1CCCC2CCCCC21 (stereo not drawn) [Compound L319N53] | > 200 µM | > 200 µM | > 200 µM | > 200 | > 200 µM | > 200 | > 200 | > 200 | –
Cc1c(Br)cc(NC(=O)C(c2ccccc2)S(=O)(=O)O)cc1Br (stereo not drawn) [Compound L319M34] | – | – | 55.5 µM | – | – | – | – | – | > 200
O=C(Nc1cccc(OCc2ccccc2)c1)C(=O)Nc1ccccc1NC(=O)C(c1ccccc1)S(=O)(=O)O (stereo not drawn) [Compound L319-21-M52] | > 50 µM | > 50 µM | > 50 µM | – | – | – | – | – | –
O=C(Nc1nc2ccccc2s1)C(c1ccccc1)S(=O)(=O)O (stereo not drawn) [Compound L319N15] | > 200 µM | > 200 µM and 190 µM | > 200 µM and 59.6 µM | > 200 | > 200 µM and 180 µM | > 200 | > 200 | > 200 | –
O=C(CS(=O)(=O)O)Nc1nc2ccc([N+](=O)[O-])cc2s1 [Compound L335N15-07] | > 100 µM | > 100 µM | > 100 µM | > 100 | > 100 µM | > 100 | > 100 | > 100 | –
O=C(Nc1cnc2ccccc2c1)C(c1ccccc1)S(=O)(=O)O (stereo not drawn) [Compound L319M88] | > 200 µM | > 200 µM | > 200 µM | > 200 | > 200 µM | > 200 | > 200 | > 200 | –
Cc1c(Br)cc(NC(=O)CS(=O)(=O)O)cc1Br | > 100 µM | > 100 µM | > 100 µM | > 100 | > 100 µM | > 100 | > 100 | > 100 | –
O=C(CS(=O)(=O)O)Nc1nc2ccccc2s1 [Compound L335N15] | > 100 µM | > 100 µM | > 100 µM | > 100 | > 100 µM | > 100 | > 100 | > 100 | –
O=C(NCc1ccc(NC(=O)C(c2ccccc2)S(=O)(=O)O)cc1)c1ccccc1-c1ccc(C(F)(F)F)cc1 (stereo not drawn) [Compound L319-05-A64] | 93 µM | 62 µM | – | – | – | – | – | – | –
O=C(Nc1ccc(OCc2ccccc2)c(Cl)c1)C(c1ccccc1)S(=O)(=O)O (stereo not drawn) [Compound L319M50] | > 100 µM | > 200 µM | 53.2 µM | – | – | – | – | – | –
O=C(Nc1cccc(OCc2ccccc2)c1)C(c1ccccc1)S(=O)(=O)O (stereo not drawn) [Compound L319M52] | 118 µM and > 100 µM | > 200 µM | > 200 µM and 62.3 µM | > 200 | > 200 µM | > 200 | > 200 | > 200 | –
O=C(Nc1ccc(-c2ccccc2)cc1)C(c1ccccc1)S(=O)(=O)O (stereo not drawn) [Compound L319N08] | > 100 µM | > 200 µM | 64.6 µM | – | – | – | – | – | –
O=C(NCCNC(=O)C(c1ccccc1)S(=O)(=O)O)c1cccc(C(=O)c2ccccc2)c1 (stereo not drawn) [Compound L319-02-A60] | > 200 µM | > 200 µM | > 200 µM | – | – | – | – | – | –
CCCCc1ccc(NC(=O)C(=O)Nc2ccccc2NC(=O)C(c2ccccc2)S(=O)(=O)O)cc1 (stereo not drawn) [Compound L319-21-M06] | > 50 µM | > 50 µM | > 50 µM | – | – | – | – | – | –
O=C(Nc1ccc2nc(C(F)(F)F)[nH]c2c1)C(c1ccccc1)S(=O)(=O)O (stereo not drawn) [Compound L319M54] | > 200 µM | > 200 µM | > 200 µM | > 200 | > 200 µM | > 200 | > 200 | > 200 | –
